# Patent US11572590B2, “Methods for evaluating tumor cell spheroids using 3D microfluidic cell culture device” (Dana-Farber Cancer Institute, Inc., priority 2017, dated 2023)
# Read-outs that look alike come from different tables or passages of the source.
# Tests used:
# Assay in all cases: SelectScreen Kinase Profiling, single point inhibition and IC50 for off-target kinases
# Assay type in all cases: biochemical
# [1] = target: off-target kinases (Homo sapiens, UniProt Q9Y463); conditions: DYRK1B, ZLYTE, ATP Km app
# off-target kinases (Homo sapiens, UniProt Q9Y463), sequence (Q9Y463 whole entry): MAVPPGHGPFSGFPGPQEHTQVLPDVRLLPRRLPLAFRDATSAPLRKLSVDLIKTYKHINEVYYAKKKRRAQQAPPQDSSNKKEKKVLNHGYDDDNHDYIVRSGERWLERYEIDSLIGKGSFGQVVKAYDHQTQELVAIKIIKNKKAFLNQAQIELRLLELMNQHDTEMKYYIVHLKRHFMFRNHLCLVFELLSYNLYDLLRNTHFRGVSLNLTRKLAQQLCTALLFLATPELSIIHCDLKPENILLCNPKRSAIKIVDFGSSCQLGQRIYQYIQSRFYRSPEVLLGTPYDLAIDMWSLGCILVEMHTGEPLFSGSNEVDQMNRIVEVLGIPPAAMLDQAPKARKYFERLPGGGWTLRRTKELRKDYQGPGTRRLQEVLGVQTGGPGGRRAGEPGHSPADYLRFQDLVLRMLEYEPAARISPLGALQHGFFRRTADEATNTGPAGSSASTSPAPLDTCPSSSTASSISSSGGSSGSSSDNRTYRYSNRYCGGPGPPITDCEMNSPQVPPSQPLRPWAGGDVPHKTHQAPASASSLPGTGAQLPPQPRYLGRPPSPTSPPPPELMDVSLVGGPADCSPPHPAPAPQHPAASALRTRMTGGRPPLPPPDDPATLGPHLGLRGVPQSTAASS
# [2] = target: T1, off-target kinases (Homo sapiens, UniProt P33981); conditions: TTK, LanthaScreen Binding
# T1 sequence (P33981 1-857): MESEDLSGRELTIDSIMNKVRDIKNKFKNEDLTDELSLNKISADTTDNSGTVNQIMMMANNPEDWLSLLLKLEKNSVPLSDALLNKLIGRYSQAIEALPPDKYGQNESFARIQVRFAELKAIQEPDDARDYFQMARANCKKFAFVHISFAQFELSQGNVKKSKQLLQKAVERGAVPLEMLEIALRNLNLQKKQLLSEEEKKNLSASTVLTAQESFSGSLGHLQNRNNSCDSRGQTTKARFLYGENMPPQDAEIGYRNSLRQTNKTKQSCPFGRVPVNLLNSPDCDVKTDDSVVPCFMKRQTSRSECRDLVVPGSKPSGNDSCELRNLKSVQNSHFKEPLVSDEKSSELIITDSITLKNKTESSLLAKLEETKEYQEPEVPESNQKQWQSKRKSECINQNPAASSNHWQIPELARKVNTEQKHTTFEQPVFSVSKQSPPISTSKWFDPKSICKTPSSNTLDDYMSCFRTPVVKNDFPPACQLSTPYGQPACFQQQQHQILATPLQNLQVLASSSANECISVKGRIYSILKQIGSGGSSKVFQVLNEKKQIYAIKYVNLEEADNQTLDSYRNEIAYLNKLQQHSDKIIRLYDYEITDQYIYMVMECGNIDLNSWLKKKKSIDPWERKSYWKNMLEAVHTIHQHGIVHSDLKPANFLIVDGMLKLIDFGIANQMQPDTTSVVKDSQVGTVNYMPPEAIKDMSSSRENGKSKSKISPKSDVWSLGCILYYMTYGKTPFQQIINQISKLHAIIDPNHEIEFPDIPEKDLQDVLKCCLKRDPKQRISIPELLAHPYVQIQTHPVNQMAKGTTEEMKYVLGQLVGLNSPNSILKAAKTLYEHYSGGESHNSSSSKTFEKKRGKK
# [3] = target: off-target kinases (Homo sapiens, UniProt P23443); conditions: RPS6KB1 (p70S6K), ZLYTE, ATP Km app
# off-target kinases (Homo sapiens, UniProt P23443), sequence (P23443 whole entry): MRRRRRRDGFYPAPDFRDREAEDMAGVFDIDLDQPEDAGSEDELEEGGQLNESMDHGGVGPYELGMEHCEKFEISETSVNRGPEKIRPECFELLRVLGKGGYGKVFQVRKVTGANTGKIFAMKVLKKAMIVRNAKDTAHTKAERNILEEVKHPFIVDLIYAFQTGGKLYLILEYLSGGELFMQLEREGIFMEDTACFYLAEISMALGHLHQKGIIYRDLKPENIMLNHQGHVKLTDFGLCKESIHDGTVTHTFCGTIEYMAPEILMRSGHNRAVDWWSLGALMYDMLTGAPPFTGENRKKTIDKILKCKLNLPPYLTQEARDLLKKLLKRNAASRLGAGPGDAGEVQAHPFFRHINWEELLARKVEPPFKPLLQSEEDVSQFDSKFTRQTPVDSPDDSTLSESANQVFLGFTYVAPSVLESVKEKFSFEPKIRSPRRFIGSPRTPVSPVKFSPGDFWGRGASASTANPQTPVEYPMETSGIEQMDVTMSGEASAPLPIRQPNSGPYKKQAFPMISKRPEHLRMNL
# [4] = target: off-target kinases (Homo sapiens, UniProt O00750); conditions: PIK3C2B (PI3K-C2 beta), Adapta, ATP 10
# off-target kinases (Homo sapiens, UniProt O00750), sequence (O00750 whole entry): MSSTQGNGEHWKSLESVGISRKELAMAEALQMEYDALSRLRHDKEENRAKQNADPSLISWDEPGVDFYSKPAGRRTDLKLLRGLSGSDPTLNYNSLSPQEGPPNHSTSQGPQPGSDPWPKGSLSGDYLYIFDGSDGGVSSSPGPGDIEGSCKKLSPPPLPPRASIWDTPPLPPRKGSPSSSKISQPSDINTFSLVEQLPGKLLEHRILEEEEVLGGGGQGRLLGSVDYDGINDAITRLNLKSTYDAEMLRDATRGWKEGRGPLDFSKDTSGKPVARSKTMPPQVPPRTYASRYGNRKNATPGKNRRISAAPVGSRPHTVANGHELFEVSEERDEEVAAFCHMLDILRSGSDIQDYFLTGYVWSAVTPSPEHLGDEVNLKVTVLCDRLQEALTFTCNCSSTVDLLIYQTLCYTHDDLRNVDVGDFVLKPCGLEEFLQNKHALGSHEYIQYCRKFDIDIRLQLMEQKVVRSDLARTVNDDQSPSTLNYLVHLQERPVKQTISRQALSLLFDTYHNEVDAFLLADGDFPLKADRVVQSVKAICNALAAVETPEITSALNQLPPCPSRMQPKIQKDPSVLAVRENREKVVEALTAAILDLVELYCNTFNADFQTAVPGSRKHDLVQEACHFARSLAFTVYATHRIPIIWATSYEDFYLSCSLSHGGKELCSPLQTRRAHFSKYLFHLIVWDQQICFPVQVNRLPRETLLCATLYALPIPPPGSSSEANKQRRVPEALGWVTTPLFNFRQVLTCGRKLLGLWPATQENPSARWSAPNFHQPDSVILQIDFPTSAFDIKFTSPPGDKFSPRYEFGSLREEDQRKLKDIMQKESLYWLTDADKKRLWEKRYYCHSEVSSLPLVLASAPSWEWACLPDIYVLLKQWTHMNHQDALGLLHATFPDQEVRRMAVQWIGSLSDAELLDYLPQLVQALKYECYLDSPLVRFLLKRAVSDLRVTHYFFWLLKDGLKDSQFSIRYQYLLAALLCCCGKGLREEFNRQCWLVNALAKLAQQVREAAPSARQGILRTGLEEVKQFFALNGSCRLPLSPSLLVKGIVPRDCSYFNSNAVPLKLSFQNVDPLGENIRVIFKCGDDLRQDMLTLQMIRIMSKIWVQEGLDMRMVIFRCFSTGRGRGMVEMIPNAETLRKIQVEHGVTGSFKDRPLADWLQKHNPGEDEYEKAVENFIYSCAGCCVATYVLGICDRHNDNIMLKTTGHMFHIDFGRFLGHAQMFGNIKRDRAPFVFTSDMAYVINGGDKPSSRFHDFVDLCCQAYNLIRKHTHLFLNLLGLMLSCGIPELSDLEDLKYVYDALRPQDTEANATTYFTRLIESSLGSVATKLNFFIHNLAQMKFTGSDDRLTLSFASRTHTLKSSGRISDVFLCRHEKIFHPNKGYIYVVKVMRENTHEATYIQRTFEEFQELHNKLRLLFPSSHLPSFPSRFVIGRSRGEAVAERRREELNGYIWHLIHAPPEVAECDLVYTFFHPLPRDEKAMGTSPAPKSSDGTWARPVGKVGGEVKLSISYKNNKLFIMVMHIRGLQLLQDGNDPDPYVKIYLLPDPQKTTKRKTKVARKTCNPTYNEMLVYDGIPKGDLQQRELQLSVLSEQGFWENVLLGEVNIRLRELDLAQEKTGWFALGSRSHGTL
# [5] = target: off-target kinases (Homo sapiens, UniProt Q8TDX7); conditions: NEK7, ZLYTE, ATP Km app
# off-target kinases (Homo sapiens, UniProt Q8TDX7), sequence (Q8TDX7 whole entry): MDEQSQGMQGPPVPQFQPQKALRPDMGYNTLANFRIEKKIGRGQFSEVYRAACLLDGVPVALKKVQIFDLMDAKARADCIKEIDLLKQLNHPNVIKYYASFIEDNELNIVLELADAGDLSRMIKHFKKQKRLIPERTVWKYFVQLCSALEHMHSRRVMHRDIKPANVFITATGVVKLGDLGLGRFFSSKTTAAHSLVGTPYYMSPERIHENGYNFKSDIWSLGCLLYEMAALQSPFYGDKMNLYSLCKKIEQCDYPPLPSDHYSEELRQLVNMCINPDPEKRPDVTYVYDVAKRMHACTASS
structure (smiles),measurement,setting,value
"N#Cc1cc(-c2ncnc(Nc3ccc(N4CCN(C5COC5)CC4)cc3)n2)ccc1OC1CCOCC1 [Compound 1, 5-(4-((4-(4-(oxetan-3-yl)piperazin-1-yl)phenyl)amino)-1,3,5-triazin-2-yl)-2-((tetrahydro-2H-pyran-4-yl)oxy)benzonitrile]",inhibition,[1]; read-out: % Inhibition 1,14%
same,inhibition,[1]; read-out: % Inhibition 2,9%
same,inhibition,[1]; read-out: % Inhibition Avg,11%
same,inhibition,[2]; read-out: % Inhibition 1,33%
same,inhibition,[2]; read-out: % Inhibition 2,34%
same,inhibition,[2]; read-out: % Inhibition Avg,33%
same,inhibition,[3]; read-out: % Inhibition 1,37%
same,inhibition,[3]; read-out: % Inhibition 2,36%
same,inhibition,[3]; read-out: % Inhibition Avg,37%
same,inhibition,[4]; read-out: % Inhibition 1,3%
same,inhibition,[4]; read-out: % Inhibition 2,-7%
same,inhibition,[4]; read-out: % Inhibition Avg,-2%
same,inhibition,[5]; read-out: % Inhibition 1,5%
same,inhibition,[5]; read-out: % Inhibition 2,2%
same,inhibition,[5]; read-out: % Inhibition Avg,3%
